Experimental data published in US20260144753A1, “MULTIVALENT IONIZABLE LIPID DELIVERY SYSTEMS” (Factor Bioscience Inc., priority 2023, published 2026).
“Also recorded” adds a separate entry of the source. Read-outs that look alike come from different tables or passages of the source.

What was measured:
[1] = tested on: rat dermal tissue; assay: Intradermal injection of lipid-complexed GFP mRNA in rats; assay type: in vivo; settings: 2000 ng GFP mRNA, 48 hours
Description: In this Example, in vivo experiments were carried out in rats to investigate the transfection and expression efficiency of RNA complexed with the lipids of the present disclosure.
2000 ng of DLinDHS-complexed GFP mRNA was administered to rats by intradermal injection. After 48 hours, the injection site was fixed and stained (anti-rabbit GFP).

[2] = tested on: THP-1 human monocyte cell line; assay: THP-1 monocyte transfection efficiency, GFP mRNA lipoplexes and LNPs, flow cytometry; assay type: cell-based; settings: for in vitro transfection efficiency, LNP form (in words): LNPs; for transfection efficiency in lipoplex screen (in words): Family D lipoplexes, lipid:mRNA weight ratio of 2:1, THP-1
Description: LNPs were formulated through bulk mixing using a molar ratio of 50:38.5:10:1.5 (ionizable lipid/cholesterol/DSPC/DMG-PEG2000) and a 0.067 weight ratio of mRNA to ionizable lipid. Lipoplexes were formulated at various weight ratios of lipid:mRNA, and mRNA loading efficiency was determined via gel electrophoresis.
To evaluate transfection efficiency and cytotoxicity, THP-1 monocytes and Jurkat T cells were transfected with lipoplexes and lipid nanoparticles.
Density plots are shown of GFP+ transfected cells from doses of 2000 ng RNA per 120,000 cells for each formulation.
These 5 lipids are all in the Family D with a spermine headgroup and bis 2-hexyldecanoate tails. Lipids are listed in order of increasing carbon spacer link length. Lipoplexes were created using a lipid:mRNA weight ratio of 2:1 for each formulation.
The measured diameter of the Compound XVI lipoplexes was 359 nm. Compound XVI also functioned effectively as a solid LNP when using a molar ratio of 50:38.5:10:1.5 (ionizable lipid/cholesterol/DSPC/DMG-PEG2000) and a 0.12 weight ratio of mRNA to ionizable lipid. […] The ability to efficiently target blood cells using lipid delivery systems opens the door to a variety of applications, including potent in vivo mRNA delivery and cell reprogramming. […]

[3] = Encapsulation efficiency of LNPs, RiboGreen assay; assay type: physicochemical; settings: for average encapsulation efficiency (%): RiboGreen
Description: LNPs were formulated through bulk mixing using a molar ratio of 50:38.5:10:1.5 (ionizable lipid/cholesterol/DSPC/DMG-PEG2000) and a 0.067 weight ratio of mRNA to ionizable lipid. Lipoplexes were formulated at various weight ratios of lipid:mRNA, and mRNA loading efficiency was determined via gel electrophoresis. […] Encapsulation efficiency of LNPs was measured using a RiboGreen assay.

[4] = tested on: THP-1 monocytes; assay: Viability of THP-1 monocytes after transfection, Cell Titer Glo; assay type: cell-based, human
Description: Relative viability was determined using a Cell Titer Glo viability assay and calculating viability relative to untransfected cells.

[5] = tested on: Jurkat T cells; assay: Jurkat T cell transfection efficiency of lipoplex formulations, flow cytometry; assay type: cell-based; settings: lipoplexes, 100 ng RNA per 100,000 cells, compared to other lipids in Family D
Description: To evaluate transfection efficiency and cytotoxicity, THP-1 monocytes and Jurkat T cells were transfected with lipoplexes and lipid nanoparticles. […] A screen of 4 lipoplex formulations was analyzed using flow cytometry for doses of 100 ng RNA per 100,000 cells.

[6] = Dynamic light scattering, hydrodynamic diameter of the nanoparticles; assay type: physicochemical
Description: […] Lipoplexes were formulated at various weight ratios of lipid:mRNA, and mRNA loading efficiency was determined via gel electrophoresis. […] Dynamic light scattering (DLS) was used to determine hydrodynamic diameter of the nanoparticles, graphed as number particle size distribution. Polydispersity index (PDI) was also measured.

[7] = Zeta potential of nanoparticle formulation; assay type: physicochemical; settings: LNPs, at a pH of 7.0
[8] = tested on: HEKn cells; assay: LNP transfection efficacy in HEKn cells, mean GFP fluorescence intensity; assay type: cell-based; settings: increasing amounts of mRNA
Description: Experiments were conducted to characterize LNP transfection efficacy of Compound XXXV in HEKn cells. A performance comparison was run between control (ToRNAdo lipoplex) and test subject Compound XXXV LNP with increasing amounts of mRNA, with other variables held constant. […] Mean GFP fluorescence intensity was calculated using Operetta® Harmony software. […] An experiment was conducted to characterize lipoplex efficiency in Jurkat cells. A performance comparison was run between control (Lipofectamine 3000) and spermine bis hexyldecanoate ionizable lipid compounds with varying tether length (3-7). Lipid:mRNA weight ratios were optimized for each lipid as determined by gel electrophoresis (Compound XX (2:1), Compound XXVIII (2.5:1), Compound XIX (1:2), Compound XVI (2.5:1), Compound XXIV (1:1)). […] The bottom panels (“Neg.”) of FIG. 57 depict negative control experiments wherein no RNA was delivered.

CCCCC/C=C\C/C=C\CCCCCCCCN(CCCCN(CCCCCCCC/C=C\C/C=C\CCCCC)CC(O)CN)CC(O)CN (stereo not drawn) [DLinDHS, N^1,N^4-dilinoleyl-N^1,N^4-di-(2-hydroxy-3-aminopropyl)-diaminobutane]
GFP reporter expression after intradermal injection (in words) [1]: localized expression in the dermal layer

CCCCC/C=C\C/C=C\CCCCCCCCC(CCCCCCCC/C=C\C/C=C\CCCCC)OC(=O)CCCN(C)C [DLin-MC3-DMA, reference compound]
in vitro transfection efficiency, LNP form (in words) ([2]; GFP mRNA, THP-1): low transfection efficiency
average encapsulation efficiency (%) [3]: 61.7%
toxicity, viability of THP-1 monocytes after transfection (in words) ([4]; LNPs and lipoplexes (FIG. 10)): very little toxicity

CCCCCCCCC(CCCCCC)C(=O)OCCCCCCN(CCCN)CCCCN(CCCN)CCCCCCOC(=O)C(CCCCCC)CCCCCCCC (stereo not drawn) [Compound XVI, (butane-1,4-diylbis((3-aminopropyl)azanediyl))bis(hexane-6,1-diyl) bis(2-hexyldecanoate)]
transfection efficiency in lipoplex screen (in words) [2]: greatest transfection efficiency
in vitro transfection efficiency, LNP form (in words) ([2]; GFP mRNA, THP-1): greater in vitro transfection efficiency than the clinically used Dlin-MC3-DMA LNPs; also recorded: greater in vitro transfection efficiency of THP-1 monocytes than commercially-available controls
half-maximal effective concentration (EC50) ([2]; lipoplexes, GFP mRNA, THP-1): 147 ng RNA per 50,000 cells
in vitro transfection efficiency, lipoplex form (in words) ([2]; lipoplexes, GFP mRNA, THP-1): greatest transfection efficiency; also recorded: greater in vitro transfection efficiency of THP-1 monocytes than commercially-available controls
transfection in the Jurkat T cell line (in words) [5]: greatest transfection
measured diameter of the lipoplexes ([6]; lipoplexes): 359 nm
diameter of LNPs ([6]; solid LNP, molar ratio 50:38.5:10:1.5 (ionizable lipid/cholesterol/DSPC/DMG-PEG2000), 0.12 weight ratio of mRNA to ionizable lipid): 170 nm
surface charge [7]: +3.6 mV
encapsulation efficiency of LNPs (in words) [3]: near complete encapsulation efficiency; also recorded: greater encapsulation of mRNA
average encapsulation efficiency (%) [3]: 87.0%
toxicity, viability of THP-1 monocytes after transfection (in words) [4]: significantly greater toxicity than respective Compound XVI lipoplexes

CCCCCCCCC(CCCCCC)C(=O)OCCCCCCN(CCCCN(CCCCCCOC(=O)C(CCCCCC)CCCCCCCC)CC(O)CN)CC(O)CN (stereo not drawn) [Compound XXXV, (butane-1,4-diylbis((3-amino-2-hydroxypropyl)azanediyl))bis(hexane-6,1-diyl) bis(2-hexyldecanoate)]
LNP transfection into HEKn cells, mean GFP fluorescence intensity (in words) [8]: successful transfection into HEKn cells with diminishing returns as mRNA dosage increased

CCCCCCCCC(CCCCCC)C(=O)OCCCCCN(CCCN)CCCCN(CCCN)CCCCCOC(=O)C(CCCCCC)CCCCCCCC (stereo not drawn) [Compound XIX]
transfection efficiency in lipoplex screen (in words) [2]: greatest transfection efficiency
toxicity, relative viability of THP-1 monocytes after transfection (in words) [4]: greatest toxicity
